Tests used:
[1] = system: β-glucosidase; assay: β-glucosidase inhibition assay; format: biochemical; conditions: final concentration of 100 μM in every well; pH 6.8, 37 °C
[2] = target: α-glucosidase (Saccharomyces cerevisiae, UniProt P53341); assay: α-glucosidase inhibition assay; format: biochemical
Chain of α-glucosidase (P53341 whole entry): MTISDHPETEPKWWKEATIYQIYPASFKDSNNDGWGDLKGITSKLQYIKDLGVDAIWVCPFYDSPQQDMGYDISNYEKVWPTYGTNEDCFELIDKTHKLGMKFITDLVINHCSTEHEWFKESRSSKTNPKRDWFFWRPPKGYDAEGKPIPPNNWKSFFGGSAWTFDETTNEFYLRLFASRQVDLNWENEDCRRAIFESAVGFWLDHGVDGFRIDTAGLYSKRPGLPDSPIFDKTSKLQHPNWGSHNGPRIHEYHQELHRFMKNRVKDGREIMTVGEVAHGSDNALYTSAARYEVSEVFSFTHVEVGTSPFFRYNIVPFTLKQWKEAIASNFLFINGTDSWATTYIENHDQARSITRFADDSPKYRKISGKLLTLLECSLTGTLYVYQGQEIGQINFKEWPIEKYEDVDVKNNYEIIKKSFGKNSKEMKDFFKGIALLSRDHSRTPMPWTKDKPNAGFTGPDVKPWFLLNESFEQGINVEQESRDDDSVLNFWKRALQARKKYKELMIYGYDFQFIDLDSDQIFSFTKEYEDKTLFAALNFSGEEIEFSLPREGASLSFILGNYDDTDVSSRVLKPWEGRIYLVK

Row | SMILES | β-glucosidase % age inhibition [1] | IC50 [2] | α-glucosidase inhibitory efficacy, folds stronger than acarbose ([2]; ratio of IC50 values versus acarbose)
1 | COc1cc(C(=O)N=c2scc(-c3ccc(F)cc3)n2-c2ccc(F)c(Cl)c2)cc(OC)c1OC [6a, N-(3-(3-Chloro-4-fluorophenyl)-4-(4-fluorophenyl)thiazol-2(3H)-ylidene)-3,4,5-trimethoxybenzamide] | 11.2% | 18.2 ± 0.02 µM | 
2 | O=C(N=c1scc(-c2ccc(F)cc2)n1-c1ccccc1F)c1ccccc1Cl [6b, 2-Chloro-N-(3-(2-fluorophenyl)-4-(4-fluorophenyl)thiazol-2(3H)-ylidene)benzamide] | 24.2% | 3.23 ± 0.07 µM | 
3 | O=C(N=c1scc(-c2ccc(F)cc2)n1-c1ccccc1F)c1ccccc1F [6c, 2-Fluoro-N-(3-(2-fluorophenyl)-4-(4-fluorophenyl)thiazol-2(3H)-ylidene)benzamide] | 36.3% | 2.98 ± 0.04 µM | 
4 | O=C(N=c1scc(-c2ccc(F)cc2)n1-c1ccccc1F)c1cccc(F)c1 [6d, 3-Fluoro-N-(3-(2-fluorophenyl)-4-(4-fluorophenyl) Thiazol-2(3H)-ylidene)benzamide] | 18.6% | 1.47 ± 0.05 µM | ~24 folds
5 | COc1cc(C(=O)N=c2scc(-c3ccc(F)cc3)n2-c2ccc(F)cc2)cc(OC)c1OC [6e, N-(3,4-Bis(4-fluorophenyl)thiazol-2(3H)-ylidene)-3,4,5-trimethoxybenzamide] | 9.33% | 2.1 ± 0.06 µM | 
6 | O=C(N=c1scc(-c2ccc(F)cc2)n1-c1ccc(F)c(Cl)c1)c1ccc(F)cc1 [6g, N-(3-(3-Chloro-4-fluorophenyl)-4-(4-fluorophenyl)thiazol-2(3H)-ylidene)-4-fluorobenzamide] | 20.1% | 3.16 ± 0.15 µM | 
7 | O=C(N=c1scc(-c2ccc(F)cc2)n1-c1ccc(F)cc1)c1ccccc1Cl [6h, N-(3,4-Bis(4-fluorophenyl) Thiazol-2(3H)-ylidene)-2-chlorobenzamide] | 17.5% | 4.33 ± 0.19 µM | 
8 | COc1cc(C(=O)N=c2scc(-c3ccc(F)cc3)n2-c2cccc(F)c2)cc(OC)c1OC [6i, N-(3-(3-Fluorophenyl)-4-(4-fluorophenyl)thiazol-2(3H)-ylidene)-3,4,5-trimethoxybenzamide] | 15.4% | 8.31 ± 0.13 µM | 
9 | O=C(N=c1scc(-c2ccc(F)cc2)n1-c1ccc(F)c(Cl)c1)c1ccccc1F [6j, N-(3-(3-Chloro-4-fluorophenyl)-4-(4-fluorophenyl)thiazol-2(3H)-ylidene)-2-fluorobenzamide] | 12.8% | 12.5 ± 0.22 µM | 
10 | C[C@H]1O[C@H](O[C@H]2[C@H](O)[C@@H](O)[C@@H](O[C@H]3[C@H](O)[C@@H](O)C(O)O[C@@H]3CO)O[C@@H]2CO)[C@H](O)[C@@H](O)[C@@H]1N[C@H]1C=C(CO)[C@@H](O)[C@H](O)[C@H]1O (some centres unmarked) [acarbose, reference compound] | 63.7% |  | 

From publication PMC10993276 (ACS Omega, 2024)
